Results from the SangsterLogP compilation.

Test: not given
Conditions: not given

Compound | logP
CCC(C)(C)c1ccc(OCC2CN=C(N)O2)cc1 (configuration not stated) | 3.69
NC1=NCC(COc2ccccc2Cc2ccccc2)O1 (configuration not stated) | 3.05

Test: method code SF-HPLC, from DOI: 10.1080/10826079708014133
Conditions: pH 11.0

Compound | logD
Cc1cccc(C)c1OCC1CN=C(N)O1 (configuration not stated) | 2
NC1=NCC(COc2cccc(C(F)(F)F)c2)O1 (configuration not stated) | 2.35
Cc1ccc(OCC2CN=C(N)O2)cc1C (configuration not stated) | 2.1
NC1=NCC(COc2ccc(-c3ccccc3)cc2)O1 (configuration not stated) | 2.8
Cc1ccc(OCC2CN=C(N)O2)c(C)c1 (configuration not stated) | 2.23
Cc1ccc(C)c(OCC2CN=C(N)O2)c1 (configuration not stated) | 2.29
NC1=NCC(COc2cccc(Cl)c2)O1 (configuration not stated) | 2.09
CCc1ccc(OCC2CN=C(N)O2)cc1 (configuration not stated) | 2.27
Cc1cccc(OCC2CN=C(N)O2)c1 (configuration not stated) | 1.75
Cc1cccc(OCC2CN=C(N)O2)c1C (configuration not stated) | 2.25
